Like-named read-outs stand apart in the source and are kept apart here.
Key:
[1] = system: SARS-CoV-2; assay type: in vivo, Syrian hamster; conditions: doses, frequency, duration as in Table 1
[2] = system: SARS-CoV-2 in Vero cells; conditions: for IC50: * one replicate only; for Selectivity Index (Vero cells), With Pgp pump inhibitor / Selectivity Index (Vero cells), Without Pgp pump inhibitor: T: toxicity observed
[3] = system: SARS-CoV-2 in Calu-3 cells; conditions: for IC50: read-out: Calu-3 cells Average IC50, * one replicate only
[4] = system: SARS-CoV-2; conditions: cited from earlier work; for EC50: read-out: SARS-CoV-2 EC50
[5] = system: SARS-CoV-2 in Vero cells; assay: microbe, parasite or virus in culture; conditions: Severe acute respiratory syndrome coronavirus 2, Vero
[6] = system: SARS-CoV-2 in Calu-3 cells; assay: microbe, parasite or virus in culture; conditions: Severe acute respiratory syndrome coronavirus 2, Calu-3, read-out: Calu-3 cells Average IC50
[7] = in vitro; conditions: African green monkey, Selectivity Index (Vero cells), T: toxicity observed
[8] = female, LGV Golden Syrian, hamster, in vivo
[9] = Population PK model in human (digitized literature data)
[10] = Binding to antiviral assay medium by Rapid Equilibrium Dialysis; conditions: 2% serum DMEM media; DNDi in-house data
[11] = read-out: VERO cells Average IC50, With Pgp pump inhibitor, 2 μM CP-100356
[12] = read-out: VERO cells Average IC50, Without Pgp pump inhibitor
[13] = read-out: VERO cells Average IC50, With Pgp pump inhibitor, 2 μM CP-100356, * one replicate only
[14] = read-out: VERO cells Average IC50, Without Pgp pump inhibitor, * one replicate only
[15] = human, modelled from digitized data, ref 68 (ambroxol), 71-73 (cepharanthine), 78 (fluvoxamine), 80 (molnupiravir)

Compound: bemnifosbuvir
- Activity in SARS-CoV-2 Hamster Model [1]: No ^d
- Activity in SARS-CoV-2 Hamster Model ([1]; listed as bemnifosbuvir (AT-527)): no activity
- Activity In Vitro; Potency EC50 or IC50 < 10 µM; Vero Cells [2]: No (Potency EC50 or IC50 < 10 µM)
- IC50 [2, 11]: > 25 µM
- IC50 [2, 12]: > 25 µM
- Activity In Vitro; Potency EC50 or IC50 < 10 µM; Calu-3 Cells [3]: No (Potency EC50 or IC50 < 10 µM)
- IC50 [3]: > 50 µM
- EC90 ([4]; host cell HAE, AT-511, free base of AT-527 used): 0.47 µM

Compound: CCCN(CCC)S(=O)(=O)c1ccc(C(=O)O)cc1 [Probenecid, probenecid]
- Activity In Vitro; Potency EC50 or IC50 < 10 µM; Vero Cells [2]: No (Potency EC50 or IC50 < 10 µM)
- Activity In Vitro; Potency EC50 or IC50 < 10 µM; Calu-3 Cells [3]: No (Potency EC50 or IC50 < 10 µM)
- EC50 ([4]; host cell NHBE): 0.0013 µM
- EC50 ([4]; host cell Vero E6, ref 54): 0.75 µM
- IC50 [5, 13]: > 50 µM
- IC50 [5, 14]: > 50 µM
- IC50 [6]: > 50 µM

Compound: O=C(Nc1ncc([N+](=O)[O-])s1)c1ccccc1O [Tizoxanide, tizoxanide]
- selectivity ratio ([7]; With Pgp pump inhibitor): > 21.7
- selectivity ratio ([7]; Without Pgp pump inhibitor): > 7
- IC50 [5, 13]: 2.3 µM
- IC50 [5, 14]: 7.2 µM
- IC50 [6]: 14.3 µM

Compound: CCNCc1cc(Nc2ccnc3cc(Cl)ccc23)ccc1O [N-desethylamodiaquine]
- CL/F, elimination clearance, population estimate (%RSE) [8]: 804 (9.48%) mL/h
- Q/F (Q1/F), inter-compartment clearance, population estimate (%RSE) [8]: 229 (27.6%) mL/h
- VC/F, central volume of distribution, population estimate (%RSE) [8]: 1890 (42.2%) mL
- VP/F, peripheral volume of distribution, population estimate (%RSE) [8]: 3050 (77.1%) mL

Compound: CN(Cc1cc(Br)cc(Br)c1N)C1CCCCC1 [Bromhexine, bromhexine]
- EC50 ([4]; host cell Vero E6, ref 47): 21.7 µM

Compound: CC(C)C(=O)OC[C@H]1O[C@@H](n2ccc(NO)nc2=O)[C@H](O)[C@@H]1O [Molnupiravir, molnupiravir]
- Activity in SARS-CoV-2 Hamster Model [1]: Yes
- Activity in SARS-CoV-2 Hamster Model ([1]; listed as molnupiravir): demonstrated in vivo efficacy
- Dose effect on MTT (power) ([9]; covariate, human model): 0.127 (10.8%)
- CL/F, population estimate (%RSE) [9, 15]: 80.9 (3.9%) L/h
- VC/F, population estimate (%RSE) [9, 15]: 128 (5.7%) L
- MTT, population estimate (%RSE) ([9]; human, modelled from digitized data, ref 68 (ambroxol), 78 (fluvoxamine), 80 (molnupiravir)): 1.0 (3.3%) h
- Activity In Vitro; Potency EC50 or IC50 < 10 µM; Vero Cells ([2]; in the presence of a P-glycoprotein inhibitor (^Pgp)): Yes ^Pgp (Potency EC50 or IC50 < 10 µM)
- IC50 [2, 11]: 2.6 µM
- IC50 ([2]; read-out: VERO cells Average IC50, With Pgp pump inhibitor, 2 μM CP-100356, listed as molnupiravir): < 10 µM
- Activity In Vitro; Potency EC50 or IC50 < 10 µM; Calu-3 Cells [3]: Yes (Potency EC50 or IC50 < 10 µM)
- CL/F, elimination clearance, population estimate (%RSE) [8]: 1340 (7.6) mL/h
- Dose effect on KA (exp) [8]: -0.00247 (23.7)
- KA, absorption rate constant, population estimate (%RSE) [8]: 1.45 (7.5) h-1
- Q/F (Q1/F), inter-compartment clearance, population estimate (%RSE) [8]: 15.8 (23.1) mL/h
- VC/F, central volume of distribution, population estimate (%RSE) [8]: 172 (21.6) mL
- VP/F, peripheral volume of distribution, population estimate (%RSE) [8]: 75.3 (23.0) mL
- EC50 ([4]; host cell Calu-3): 0.1 µM
- selectivity ratio ([7]; With Pgp pump inhibitor): > 19.4
- selectivity ratio ([7]; Without Pgp pump inhibitor): > 1.9
- IC50 [5, 14]: 26 µM
- IC50 [6]: 27.8 µM

Compound: CC1(C)C(=O)N(c2ccc(C#N)c(C(F)(F)F)c2F)C(=S)N1c1ccc(CCCc2ncco2)nc1 [Proxalutamide, proxalutamide]
- Activity In Vitro; Potency EC50 or IC50 < 10 µM; Vero Cells [2]: No (Potency EC50 or IC50 < 10 µM)
- Selectivity Index (Vero cells), With Pgp pump inhibitor [2]: < 2.3
- Selectivity Index (Vero cells), Without Pgp pump inhibitor [2]: < 1.6
- IC50 [2, 11]: 21.5 µM
- IC50 [2, 12]: 30.3 µM
- Activity In Vitro; Potency EC50 or IC50 < 10 µM; Calu-3 Cells [3]: No (Potency EC50 or IC50 < 10 µM)
- IC50 [3]: 14.5 µM
- EC50 ([4]; host cell LNCaP Cells): 0.097 µM

Compound: COc1cc2c(c(OC)c1OC)-c1ccc(OC)c(=O)cc1[C@@H](NC(C)=O)CC2 [Colchicine, colchicine]
- Activity In Vitro; Potency EC50 or IC50 < 10 µM; Vero Cells [2]: Yes (Potency EC50 or IC50 < 10 µM)
- Activity In Vitro; Potency EC50 or IC50 < 10 µM; Calu-3 Cells [3]: Yes (Potency EC50 or IC50 < 10 µM)
- IC50 ([5]; read-out: VERO cells Average IC50, With Pgp pump inhibitor): 3.7 µM
- IC50 [5, 12]: 8.4 µM

Compound: O=c1nc(NO)ccn1[C@@H]1O[C@H](CO)[C@@H](O)[C@H]1O [EIDD-1931]
- Selectivity Index (Vero cells), With Pgp pump inhibitor [2]: > 37
- Selectivity Index (Vero cells), Without Pgp pump inhibitor [2]: > 32
- IC50 [2, 11]: 1.3 µM
- IC50 [2, 12]: 1.5 µM
- IC50 [3]: 3.6 µM
- Fraction unbound in assay medium [10]: 99.7%
